Test results: patent publication US20160271145A1, “METHOD FOR ENLARGING THE PARTICLE SIZE OF CRYSTALLINE MICROPARTICLES OF ACTIVE SUBSTANCE” (Jesalis Pharma GmbH, priority 2012, published 2016)

Key:
[1] = microparticles by the method of DE 102008037025 A1, as stated in the background; cited from earlier work
[2] = particle size (d50) and span by laser diffraction, Mastersizer E; assay type: physicochemical; conditions: for d50 value of the particle size distribution (first d50): acetone:water 1:1
From the text: The particle size distribution and the diameters of the particles within the framework of the invention are relative to volume. dx means that x percent by volume (vol. %) of the particles have a diameter which is smaller than the stated value. With a d50 value of 1 μm therefore 50 vol. % of the particles have a diameter smaller than 1 μm (micrometre). If d10 or […] is 1 μm, 10 or 90 vol. %, respectively, of the particles have a diameter smaller than 1 μm. The d50 value is also called average particle size or average particle diameter.
Within the framework of the invention, the average particle size (d50 values) and the particle size distribution were measured by means of laser diffraction, which provides a distribution of the particle sizes. A Mastersizer E (Malvern Instruments) was used. 5 mg solid is dispersed for 20 min in 5 ml 0.1% aqueous sodium dodecyl sulphate solution using ultrasound (2 mm sonotrode, sonicator UPS 200, Dr. Hielscher GmbH, 30% amplitude) and placed in the measurement cell of the Mastersizer E, an optical concentration of 18% is set and measurement is carried out (Fraunhofer evaluation). The span was calculated from the d10, d50 and d90 values ((d90 −d10);d50 ).

[3] = granulometric analysis and span by laser diffraction (Sympatec, RODOS), reference test according to DE 102008037025 A1; assay type: physicochemical; conditions: Comparison example, spray-dried, dispersing pressure 5 bar
Protocol: A 100-ml stirred vessel with blade stirrer is charged with 160 g of Y-stabilized zirconium oxide spheres with a diameter of 0.5 mm plus 30 ml of water. A solution of 0.6 g fluticasone propionate in 10 ml acetone is added to these, with stirring. After stirring for 5 min, a solution of 1.8 g fluticasone in 30 ml acetone and in the same ratio 90 ml water are added dropwise within 10 min, with stirring at 1300 rev/min. Simultaneously, product suspension is drawn off, with approximately constant filling level. Addition and product withdrawal can also take place quasicontinuously in smaller portions without any adverse effect on the result, if the above time frame is maintained. After addition, to complete the yield rinsing is carried out with approx. 60 ml water. Alternatively, the suspension in the crystallizer can be left as starting suspension for the subsequent batch. Altogether, 180 g of suspension with a solids content of 13 mg per ml is obtained. The suspension is then spray-dried Granulometric analysis and span determination were effected by means of laser diffraction (Sympatec Helps, RODOS dispersing system, dispersing pressure 5 bar).

[4] = solubility of the active substance in the solvent-antisolvent (acetone-water) mixture of the first suspension; assay type: physicochemical; conditions: acetone content reduced to 42% by addition of water
From the text: Solubilities of the active substance in the solvent-antisolvent mixture of the first suspension of 0.001-0.5 wt. % are suitable for carrying out the method according to the invention. Solubilites of 0.01-0.2 wt. %, in particular 0.02-0.2 wt. % are preferred. By solubility is meant, within the framework of the invention, the usual solubility known to a person skilled in the art, namely the solubility of a substance in thermodynamic equilibrium at room temperature in the solvent-antisolvent mixture. The solubilities are not relative to volume, i.e., they specify the solubility of the active substance in the total volume of the liquid phase of the suspension. It is clear from the stated solubilities that microparticles of active substance are present throughout the method.

[5] = habit of the particles evaluated on a microscope image (ratio of largest to smallest size); assay type: physicochemical
Protocol: The predominantly spherical shape manifests itself in that in this preferred embodiment the ratio of the largest to the smallest size of the individual particles is on average ≦2. This ratio is determined by measurement on a microscope image of the particles, by determining the ratio of the largest to the smallest size of each individual particle for at least 50 randomly selected particles and then ascertaining the average over the at least 50 particles. Preferably, the ratio of the largest to the smallest size of the individual particles is on average ≦1.6.
Immediately after the end of the stirring time, the batch is filtered using a nutsch filter with a negative pressure of 100 mbar on the filtrate side and washed with 1.0 l water. The moist filter cake has a mass of approx. 1100 g and is transferred into a 3-l container, topped up to 2160 g with water and redispersed with the Ultra Turrax T50 (|KA) at 12,000 1/min for 10 min. After this, the third d50 value is determined to be 1.28 μm from this second suspension. The span value of the particles is 1.28. The habit is evaluated microscopically as stated above (light microscope image). Habit of the particles: spherical; ratio of the largest to the smallest size of the individual particles on average=1.48. The second suspension is then spray-dried and the particles of fluticasone propionate are obtained.

[6] = Example 2, mixture of the second suspensions of the preceding and subsequent batch
[7] = Example 1, light microscope image

second d50 ([2]; Example 1, after 4.5 h stirring, 42% acetone): 1.12 μm
span value of the particles ([2]; Example 1, second suspension): 1.28
third d50 value ([2]; Example 1, second suspension after further 17 h stirring, filtration and redispersing in water): 1.28 μm
d50 value of the particle size distribution (first d50) ([2]; Example 1, starting suspension): 0.98 μm
d50 value [2, 6]: 1.28 μm
span value of the distribution [2, 6]: 1.28
second d50 value ([2]; Example 2, preceding batch, after 4.0 h stirring, 42% acetone): 1.12 μm
span value of the distribution ([2]; Example 2, preceding batch, second suspension): 1.29
third d50 value ([2]; Example 2, preceding batch, second suspension after further 13 h stirring): 1.24 μm
d50 value of the particle size distribution (first d50) ([2]; Example 2, preceding batch, starting suspension): 0.99 μm
intermediate d50 value ([2]; Example 2, subsequent batch, after 3.5 h stirring, 42% acetone): 1.09 μm
span value of the distribution ([2]; Example 2, subsequent batch, second suspension): 1.24
third d50 value ([2]; Example 2, subsequent batch, second suspension, stirring time increased to 18 h): 1.30 μm
d50 value of the particle size distribution (first d50) ([2]; Example 2, subsequent batch, starting suspension): 0.97 μm
d50 [3]: 1.47 μm
span [3]: 1.78
solubility of fluticasone propionate [4]: 0.032 wt. %
habit of the particles [5, 7]: spherical
ratio of the largest to the smallest size of the individual particles on average [5, 7]: 1.48
habit of the particles ([5]; Example 2, subsequent batch): spherical
ratio of the largest to the smallest size of the individual particles on average ([5]; Example 2, subsequent batch): 1.45
Structure (SMILES): CCC(=O)O[C@]1(C(=O)SCF)[C@H](C)C[C@H]2[C@@H]3C[C@H](F)C4=CC(=O)C=C[C@]4(C)[C@@]3(F)[C@@H](O)C[C@@]21C [fluticasone propionate]
d50 values [1]: 1-2 μm
span values [1]: ≥ 1.7
